# Measured values as given in ChEMBL document CHEMBL1156081, “Discovery of 4-functionalized phenyl-O-beta-D-glycosides as a new class of mushroom tyrosinase inhibitors” (Bioorg Med Chem Lett, 2009).
# The source made the active and inactive calls. The rule behind the calls is not given here.
# How the values were obtained:
# [1] = molecular target: T1, Tyrosinase (Agaricus bisporus) (UniProt O42713); assay: Inhibition of mushroom tyrosinase at 200 uM
# T1 sequence (whole entry): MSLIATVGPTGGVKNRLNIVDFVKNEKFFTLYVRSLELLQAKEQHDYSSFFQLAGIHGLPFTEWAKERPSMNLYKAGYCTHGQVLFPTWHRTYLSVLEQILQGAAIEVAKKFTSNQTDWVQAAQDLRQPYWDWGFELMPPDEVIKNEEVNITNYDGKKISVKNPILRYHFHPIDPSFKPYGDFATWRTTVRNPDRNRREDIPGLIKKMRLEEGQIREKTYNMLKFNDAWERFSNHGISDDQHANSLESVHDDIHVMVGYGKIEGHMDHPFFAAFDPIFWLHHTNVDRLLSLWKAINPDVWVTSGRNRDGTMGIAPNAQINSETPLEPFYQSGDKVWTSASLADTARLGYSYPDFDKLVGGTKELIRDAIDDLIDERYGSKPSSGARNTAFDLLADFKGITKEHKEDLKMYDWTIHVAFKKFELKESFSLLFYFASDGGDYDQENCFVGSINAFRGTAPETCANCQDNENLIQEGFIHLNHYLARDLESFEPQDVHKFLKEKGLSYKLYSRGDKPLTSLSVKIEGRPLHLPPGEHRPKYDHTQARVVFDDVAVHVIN
# Tyrosinase = molecular target: T2, Tyrosinase (Agaricus bisporus, UniProt O42713); assay: Inhibition of mushroom tyrosinase
# T2 sequence (O42713 whole entry): T1 sequence (whole entry)
# [2] = molecular target: T1, Tyrosinase (Agaricus bisporus); assay: Competitive-uncompetitive mixed-2 type inhibition of mushroom tyrosinase assessed as L-DOPA oxidation at 0.05 to 0.10 uM by Lineweaver-Burke double reciprocal plot
# [3] = molecular target: T1, Tyrosinase (Agaricus bisporus); assay: Reversible inhibition of mushroom tyrosinase assessed as L-DOPA oxidation at 1.2 to 2.4 uM
# [4] = molecular target: T1, Tyrosinase (Agaricus bisporus); details: 1.06 to 0.12 uM
# Description: Competitive inhibition of mushroom tyrosinase assessed as L-DOPA oxidation at 1.06 to 0.12 uM by Lineweaver-Burke double reciprocal plot
Structure (SMILES),inhibition [1],IC50 (Tyrosinase),other results
CO/N=C\c1ccc(O[C@@H]2O[C@H](COC(C)=O)[C@H](OC(C)=O)[C@H](OC(C)=O)[C@H]2OC(C)=O)cc1,inactive,> 200 µM,–
NC(=S)N/N=C\c1ccc(O[C@@H]2O[C@H](CO)[C@@H](O)[C@H](O)[C@H]2O)cc1,–,2.96 µM,–
CO/N=C\c1ccc(O[C@@H]2O[C@H](COC(C)=O)[C@@H](OC(C)=O)[C@H](OC(C)=O)[C@H]2OC(C)=O)cc1,inactive,> 200 µM,–
CCO/N=C\c1ccc(O)c(O)c1,–,0.3 µM,–
CO/N=C\c1ccc(O[C@@H]2O[C@H](CO)[C@@H](O)[C@@H](O)[C@H]2O)cc1,inactive,> 200 µM,–
O=C(O[C@@H]1[C@@H](OC(=O)c2ccccc2)[C@H](Oc2ccc(/C=N\O)cc2)OC[C@H]1OC(=O)c1ccccc1)c1ccccc1,inactive,> 200 µM,–
O=Cc1ccc(O[C@@H]2O[C@H](COC(=O)c3ccccc3)[C@@H](OC(=O)c3ccccc3)[C@@H](OC(=O)c3ccccc3)[C@H]2OC(=O)c2ccccc2)cc1,inactive,–,–
O=Cc1ccc(O[C@@H]2O[C@H](CO)[C@@H](O)[C@@H](O)[C@H]2O)cc1,inactive,–,–
CO/N=C\c1ccc(O[C@@H]2O[C@H](CO)[C@@H](O)[C@H](O)[C@H]2O)cc1,inactive,> 200 µM,–
CO/N=C\c1ccc(O[C@@H]2O[C@H](COC(C)=O)[C@@H](O[C@@H]3O[C@H](COC(C)=O)[C@H](OC(C)=O)[C@H](OC(C)=O)[C@H]3OC(C)=O)[C@H](OC(C)=O)[C@H]2OC(C)=O)cc1,inactive,> 200 µM,–
CO/N=C\c1ccc(O[C@@H]2OC[C@@H](OC(=O)c3ccccc3)[C@H](OC(=O)c3ccccc3)[C@H]2OC(=O)c2ccccc2)cc1,inactive,> 200 µM,–
CO/N=C\c1ccc(O[C@@H]2O[C@H](COC(=O)c3ccccc3)[C@@H](OC(=O)c3ccccc3)[C@@H](OC(=O)c3ccccc3)[C@H]2OC(=O)c2ccccc2)cc1,inactive,> 200 µM,–
CC(=O)OC[C@H]1O[C@@H](O[C@H]2[C@H](OC(C)=O)[C@@H](OC(C)=O)[C@H](Oc3ccc(/C=N\NC(N)=S)cc3)O[C@@H]2COC(C)=O)[C@H](OC(C)=O)[C@@H](OC(C)=O)[C@H]1OC(C)=O,–,0.65 µM,inhibition [2]: Active; inhibition [3]: Active
CC(=O)OC[C@H]1O[C@@H](Oc2ccc(C=O)cc2)[C@H](OC(C)=O)[C@@H](OC(C)=O)[C@H]1OC(C)=O,inactive,–,–
O=C(OC[C@H]1O[C@@H](Oc2ccc(/C=N\O)cc2)[C@H](OC(=O)c2ccccc2)[C@H](OC(=O)c2ccccc2)[C@@H]1OC(=O)c1ccccc1)c1ccccc1,inactive,> 200 µM,–
NC(=S)N/N=C\c1ccc(O[C@@H]2OC[C@@H](OC(=O)c3ccccc3)[C@H](OC(=O)c3ccccc3)[C@H]2OC(=O)c2ccccc2)cc1,–,36.5 µM,–

Structure (SMILES),inhibition [1],IC50 (Tyrosinase),other results
CC(=O)OC[C@H]1O[C@@H](Oc2ccc(/C=N\NC(N)=S)cc2)[C@H](OC(C)=O)[C@@H](OC(C)=O)[C@@H]1OC(C)=O,–,0.31 µM,inhibition [4]: Active; inhibition [3]: Active
OC[C@H]1O[C@@H](Oc2ccc(/C=N\O)cc2)[C@H](O)[C@@H](O)[C@@H]1O,inactive,> 200 µM,–
CC(=O)OC[C@H]1O[C@@H](Oc2ccc(/C=N\O)cc2)[C@H](OC(C)=O)[C@H](OC(C)=O)[C@@H]1OC(C)=O,inactive,> 200 µM,–
NC(=S)N/N=C\c1ccc(O[C@@H]2O[C@H](COC(=O)c3ccccc3)[C@@H](OC(=O)c3ccccc3)[C@@H](OC(=O)c3ccccc3)[C@H]2OC(=O)c2ccccc2)cc1,–,52.8 µM,–
NC(=S)N/N=C\c1ccc(O[C@@H]2O[C@H](CO)[C@@H](O)[C@@H](O)[C@H]2O)cc1,–,3.61 µM,–
CC(=O)OC[C@H]1O[C@@H](Oc2ccc(/C=N\O)cc2)[C@H](OC(C)=O)[C@@H](OC(C)=O)[C@H]1OC(C)=O,inactive,> 200 µM,–
CC(=O)OC[C@H]1O[C@@H](Oc2ccc(C=O)cc2)[C@H](OC(C)=O)[C@@H](OC(C)=O)[C@@H]1OC(C)=O,inactive,–,–
CC(=O)OC[C@H]1O[C@@H](Oc2ccc(/C=N\NC(N)=S)cc2)[C@H](OC(C)=O)[C@H](OC(C)=O)[C@@H]1OC(C)=O,–,3.41 µM,–
CC(=O)OC[C@H]1O[C@@H](Oc2ccc(C=O)cc2)[C@H](OC(C)=O)[C@H](OC(C)=O)[C@@H]1OC(C)=O,inactive,–,–
O=Cc1ccc(O[C@@H]2OC[C@@H](OC(=O)c3ccccc3)[C@H](OC(=O)c3ccccc3)[C@H]2OC(=O)c2ccccc2)cc1,inactive,–,–
CO/N=C\c1ccc(O[C@@H]2O[C@H](COC(C)=O)[C@@H](OC(C)=O)[C@@H](OC(C)=O)[C@H]2OC(C)=O)cc1,inactive,> 200 µM,–
CC(=O)OC[C@H]1O[C@@H](Oc2ccc(/C=N\O)cc2)[C@H](OC(C)=O)[C@@H](OC(C)=O)[C@@H]1OC(C)=O,inactive,> 200 µM,–
OC[C@H]1O[C@@H](Oc2ccc(/C=N\O)cc2)[C@H](O)[C@H](O)[C@@H]1O,inactive,> 200 µM,–
CC(=O)OC[C@H]1O[C@@H](Oc2ccc(/C=N\NC(N)=S)cc2)[C@H](OC(C)=O)[C@@H](OC(C)=O)[C@H]1OC(C)=O,–,0.41 µM,–
O=Cc1ccc(O[C@@H]2O[C@H](CO)[C@@H](O)[C@H](O)[C@H]2O)cc1,inactive,–,–
CC(=O)OC[C@H]1O[C@@H](O[C@H]2[C@H](OC(C)=O)[C@@H](OC(C)=O)[C@H](Oc3ccc(/C=N\O)cc3)O[C@@H]2COC(C)=O)[C@H](OC(C)=O)[C@@H](OC(C)=O)[C@H]1OC(C)=O,inactive,> 200 µM,–
